# Results: US12171757B2, “Crenolanib for treating FLT3 mutated proliferative disorders” (Arog Pharmaceuticals, Inc., priority 2013, dated 2024)
# Key:
# [1] = system: refractory or relapsed acute leukemias; conditions: patients with refractory or relapsed acute leukemias; cited from earlier work
# [2] = system: relapsed/refractory AML patient with an acquired FLT3-ITD mutation; test: Crenolanib besylate monotherapy, Example 4 patient, phase II clinical trial NCT01522469; assay type: in vivo, human
# Source text: (§1) Response criteria for AML clinical trials are adapted from the International Working Group for AML. See Cheson et al. Revised Recommendations of the International Working Group for Diagnosis, Standardization of Response Criteria, Treatment Outcomes, and Reporting Standards for Therapeutic Trials in Acute Myeloid Leukemia. J Clin Oncol. 2003; 21: 4642-4649. Responders are patients who obtain a Complete Response (CR), Complete Response with incomplete blood count recovery (CRi), or Partial Remission (PR). Briefly, criteria are as follows:
# A 60.6 kg person diagnosed with FLT3-negative AML January 2012. […] The patient was then treated with 4 cycles of high dose cytarabine consolidation therapy. […] The patient was treated with 100 mg of crenolanib besylate three times daily. […] The patient discontinued crenolanib therapy and underwent allogeneic stem cell transplant.
# [3] = system: relapsed/refractory AML patient with a de novo FLT3-ITD mutation and acquired FLT3-D835 TKD mutation; test: Crenolanib besylate single agent therapy, Example 1 patient, clinical trial NCT01522469; assay type: in vivo, human
# Source text: as §1
# To overcome resistance to prior therapy, the patient was provided single agent oral crenolanib besylate on a clinical trial for relapsed or refractory AML patients with a FLT3-D835 TKD mutation (NCT01522469). […] The patient began treatment with 100 mg of oral crenolanib three times daily. […] The patient discontinued crenolanib therapy and underwent allogeneic stem cell transplant.
# [4] = system: heavily pretreated relapsed/refractory AML patient with acquired FLT3-ITD and FLT3-D835 TKD mutations; test: Crenolanib besylate monotherapy, Example 3 patient, phase II clinical trial NCT01522469; assay type: in vivo, human
# Source text: as §1
# A 59.2 kg person diagnosed with AML December 2011. Following initial diagnosis the patient was treated with 7+3 induction chemotherapy, followed by consolidation therapy with 1 cycle of high dose cytarabine. Five months later the patient underwent autologous stem cell transplantation with etoposide and busulfan conditioning. […] The patient was treated with 100 mg of crenolanib besylate three times daily. […] The patient discontinued crenolanib therapy to undergo allogeneic stem cell transplantation conditioning. The patient discontinued crenolanib therapy and underwent allogeneic stem cell transplant.
# [5] = system: relapsed/refractory AML patient with a de novo FLT3-ITD mutation and acquired FLT3-D835 TKD mutation; test: Crenolanib besylate single agent therapy, Example 2 patient, clinical trial NCT01522469; assay type: in vivo, human
# Source text: as §1
# To overcome resistance to prior therapy with FLT3 tyrosine kinase inhibitor X, the patient was provided single agent oral crenolanib besylate on a clinical trial for relapsed or refractory AML patients with a FLT3-D835 mutation (NCT01522469). At baseline, the patient presented with 91% bone marrow blasts and 4800 units/uL of absolute circulating peripheral blood blasts. The patient began treatment with 80 mg of oral crenolanib three times daily. […] The patient discontinued crenolanib therapy and underwent allogeneic stem cell transplant.
# [6] = day 15 on study drug, 100 mg three times daily
# [7] = day 29 on study drug, 100 mg three times daily
# [8] = day 58 on study drug, 100 mg three times daily
# [9] = day 33 on study drug, 100 mg three times daily
# [10] = day 21 on study drug, 80 mg oral three times daily
structure (smiles),measurement,setting,value
CNC(=O)c1cc(Oc2ccc(NC(=O)Nc3ccc(Cl)c(C(F)(F)F)c3)cc2)ccn1 [sorafenib],Effect on bone marrow (BM) blasts,[1],only modest BM blast reductions
same,Effect on peripheral blood (PB) blasts,[1],effective in clearing PB blasts
"CC1(COc2ccc3c(c2)ncn3-c2ccc3cccc(N4CCC(N)CC4)c3n2)COC1 [Crenolanib, 4-Piperidinamine, 1-[2-[5-[(3-methyl-3-oxetanyl)methoxy]-1H-benzimidazol-1-yl]-8-quinolinyl]]",Days of therapy to complete clearance of malignant leukemic blasts in peripheral blood,[2]; 100 mg three times daily,15 days
same,Clinical response (bone marrow biopsy),"[2]; after 29 days of therapy, 100 mg three times daily",complete remission with incomplete blood count recovery (CRi)
same,Absolute Peripheral Blast Count (cells/uL),[2]; day 0 on study drug (baseline),198 cells/uL
same,Bone Marrow Blast (%),[2]; day 0 on study drug (baseline),76%
same,Absolute Peripheral Blast Count (cells/uL),"[2]; day 1 on study drug, 100 mg three times daily",130 cells/uL
same,Absolute Peripheral Blast Count (cells/uL),"[2]; day 8 on study drug, 100 mg three times daily",19 cells/uL
same,Absolute Peripheral Blast Count (cells/uL),[2]; [6],0 cells/uL
same,Absolute Peripheral Blast Count (cells/uL),"[2]; day 22 on study drug, 100 mg three times daily",0 cells/uL
same,Absolute Peripheral Blast Count (cells/uL),[2]; [7],0 cells/uL
same,Bone Marrow Blast (%),[2]; [7],1%
same,Absolute Peripheral Blast Count (cells/uL),[2]; [8],0 cells/uL
same,Bone Marrow Blast (%),[2]; [8],1%
same,Clinical response (bone marrow biopsy),"[3]; after 29 days of therapy, 100 mg, decreased to 80 mg, oral three times daily",complete remission (CR)
same,Bone Marrow Blast (%),[3]; day 0 on study drug (baseline),75%
same,Bone Marrow Blast (%),"[3]; day 29 on study drug, 100 mg, decreased to 80 mg, oral three times daily",0%
same,Bone Marrow Blast (%),"[3]; day 57 on study drug, 100 mg, decreased to 80 mg, oral three times daily",1%
same,Days of therapy to complete clearance of malignant leukemic blasts in peripheral blood,[4]; 100 mg three times daily,15 days
same,Clinical response (bone marrow biopsy),"[4]; after 33 days of therapy, 100 mg three times daily",complete remission with incomplete blood count recovery (CRi)
same,Absolute Peripheral Blast Count (units/uL),[4]; day 0 on study drug (baseline),196 units/uL
same,Bone Marrow Blast (%),[4]; day 0 on study drug (baseline),60-70%
same,Absolute Peripheral Blast Count (units/uL),"[4]; day 14 on study drug, 100 mg three times daily",14 units/uL
same,Absolute Peripheral Blast Count (units/uL),[4]; [6],0 units/uL
same,Absolute Peripheral Blast Count (units/uL),"[4]; day 16 on study drug, 100 mg three times daily",0 units/uL
same,Absolute Peripheral Blast Count (units/uL),"[4]; day 17 on study drug, 100 mg three times daily",0 units/uL
same,Absolute Peripheral Blast Count (units/uL),"[4]; day 18 on study drug, 100 mg three times daily",0 units/uL
same,Bone Marrow Blast (%),"[4]; day 27 on study drug, 100 mg three times daily",10%
same,Absolute Peripheral Blast Count (units/uL),"[4]; day 28 on study drug, 100 mg three times daily",0 units/uL
same,Absolute Peripheral Blast Count (units/uL),[4]; [7],0 units/uL
same,Absolute Peripheral Blast Count (units/uL),"[4]; day 31 on study drug, 100 mg three times daily",0 units/uL
same,Absolute Peripheral Blast Count (units/uL),"[4]; day 32 on study drug, 100 mg three times daily",0 units/uL
same,Absolute Peripheral Blast Count (units/uL),[4]; [9],0 units/uL
same,Bone Marrow Blast (%),[4]; [9],5%
same,Absolute Peripheral Blast Count (units/uL),"[4]; day 39 on study drug, 100 mg three times daily",0 units/uL
same,Absolute Peripheral Blast Count (units/uL),"[4]; day 42 on study drug, 100 mg three times daily",0 units/uL
same,Absolute Peripheral Blast Count (units/uL),"[4]; day 44 on study drug, 100 mg three times daily",0 units/uL
same,Absolute Peripheral Blast Count (units/uL),"[4]; day 45 on study drug, 100 mg three times daily",0 units/uL
same,Absolute Peripheral Blast Count (units/uL),"[4]; day 46 on study drug, 100 mg three times daily",0 units/uL
same,Absolute Peripheral Blast Count (units/uL),"[4]; day 47 on study drug, 100 mg three times daily",0 units/uL
same,Absolute Peripheral Blast Count (units/uL),"[4]; day 48 on study drug, 100 mg three times daily",0 units/uL
same,Absolute Peripheral Blast Count (units/uL),"[4]; day 49 on study drug, 100 mg three times daily",0 units/uL
same,Absolute Peripheral Blast Count (units/uL),"[4]; day 50 on study drug, 100 mg three times daily",0 units/uL
same,Absolute Peripheral Blast Count (units/uL),"[4]; day 51 on study drug, 100 mg three times daily",0 units/uL
same,Absolute Peripheral Blast Count (units/uL),"[4]; day 52 on study drug, 100 mg three times daily",0 units/uL
same,Days of therapy to complete clearance of malignant leukemic blasts in peripheral blood,[5]; 80 mg oral three times daily,14 days
same,Bone Marrow Blast (%),[5]; day 0 on study drug (baseline),91%
same,Absolute Peripheral Blast Count (units/uL),"[5]; day 1 on study drug (baseline value), 80 mg oral three times daily",4800 units/uL
same,Absolute Peripheral Blast Count (units/uL),"[5]; day 3 on study drug, 80 mg oral three times daily",2747 units/uL
same,Absolute Peripheral Blast Count (units/uL),"[5]; day 4 on study drug, 80 mg oral three times daily",250 units/uL
same,Absolute Peripheral Blast Count (units/uL),"[5]; day 7 on study drug, 80 mg oral three times daily",49 units/uL
same,Absolute Peripheral Blast Count (units/uL),"[5]; day 9 on study drug, 80 mg oral three times daily",35 units/uL
same,Absolute Peripheral Blast Count (units/uL),"[5]; day 14 on study drug, 80 mg oral three times daily",0 units/uL
same,Absolute Peripheral Blast Count (units/uL),[5]; [10],0 units/uL
same,Bone Marrow Blast (%),[5]; [10],32%
same,Absolute Peripheral Blast Count (units/uL),"[5]; day 28 on study drug, 80 mg oral three times daily",0 units/uL
same,Bone Marrow Blast (%),"[5]; day 35 on study drug, 80 mg oral three times daily",2%
same,Absolute Peripheral Blast Count (units/uL),"[5]; day 37 on study drug, 80 mg oral three times daily",0 units/uL
same,Absolute Peripheral Blast Count (units/uL),"[5]; day 38 on study drug, 80 mg oral three times daily",0 units/uL
same,Absolute Peripheral Blast Count (units/uL),"[5]; day 39 on study drug, 80 mg oral three times daily",0 units/uL
same,Absolute Peripheral Blast Count (units/uL),"[5]; day 40 on study drug, 80 mg oral three times daily",0 units/uL
same,Absolute Peripheral Blast Count (units/uL),"[5]; day 41 on study drug, 80 mg oral three times daily",0 units/uL
same,Absolute Peripheral Blast Count (units/uL),"[5]; day 42 on study drug, 80 mg oral three times daily",0 units/uL
same,Absolute Peripheral Blast Count (units/uL),"[5]; day 43 on study drug, 80 mg oral three times daily",0 units/uL
same,Absolute Peripheral Blast Count (units/uL),"[5]; day 45 on study drug, 80 mg oral three times daily",0 units/uL
same,Absolute Peripheral Blast Count (units/uL),"[5]; day 46 on study drug, 80 mg oral three times daily",0 units/uL
same,Absolute Peripheral Blast Count (units/uL),"[5]; day 47 on study drug, 80 mg oral three times daily",0 units/uL
same,Absolute Peripheral Blast Count (units/uL),"[5]; day 48 on study drug, 80 mg oral three times daily",0 units/uL
same,Absolute Peripheral Blast Count (units/uL),"[5]; day 49 on study drug, 80 mg oral three times daily",0 units/uL
same,Absolute Peripheral Blast Count (units/uL),"[5]; day 50 on study drug, 80 mg oral three times daily",0 units/uL
same,Absolute Peripheral Blast Count (units/uL),"[5]; day 51 on study drug, 80 mg oral three times daily",0 units/uL
same,Absolute Peripheral Blast Count (units/uL),"[5]; day 52 on study drug, 80 mg oral three times daily",0 units/uL
same,Bone Marrow Blast (%),"[5]; day 65 on study drug, 80 mg oral three times daily",4-5%
same,Absolute Peripheral Blast Count (units/uL),"[5]; day 69 on study drug, 80 mg oral three times daily",0 units/uL
same,Clinical response (bone marrow biopsy),"[5]; over the course of 65 days of therapy, 80 mg oral three times daily",complete remission with incomplete blood count recovery (CRi)
